Assay results taken from article PMC3408433, “Selective Cytotoxicity of Amidinopiperidine Based Compounds Towards Burkitt’s Lymphoma Cells Involves Proteasome Inhibition” (PLoS ONE, 2012).

How the values were obtained:
[1] = tested on: Ramos cells; test: Cell cycle analysis (PI staining); assay type: cell-based, human; conditions: for cell cycle distribution / percentage of cells in the sub-G1 phase (< 2n): 50 µM, 24 h; for percentage of cells in the sub-G1 phase (< 2n): PI staining; for number of hypodiploid cells: 48 h treatment, untreated 3.4%
Procedure: Ramos cells (5×10^5 cells) were treated with the compound of interest for 24 h. The cells were then washed with PBS and subjected to fixation with 80% ethanol at –20°C for 15 min. Fixated cells were pelleted by centrifugation and rehydrated in 5 mL of PBS for 15 min at room temperature. Collected cells were resuspended in 500 µL staining buffer (3 µM propidium iodide, 100 mM Tris, pH 7.4, 150 mM NaCl, 1 mM CaCl2, 0.5 mM MgCl2, 0.1% Nonident P-40). After 15 min of incubation, samples were analysed on a FACScalibur and evaluated using FlowJo software (BD bioscience, Franklin Lakes/NJ, USA).

[2] = tested on: Ramos cells; test: Annexin V/7-AAD assay; assay type: cell-based, human; conditions: 16 h; for percentage of Annexin V positive cells: 50 µM, untreated 4% (Figure 5A)
Procedure: We used a PE Annexin V Apoptosis Detection Kit I (BD Biosciences) in accordance with the manufacturer’s instructions. Put briefly, Ramos cells were, following their treatment with the compound of interest, washed with cold PBS and resuspended in 1× binding buffer at a […] concentration. 100 µL of cell suspension was transferred to a 5 mL tube and 5 µL of both PE Annexin V and 7-AAD was added. The suspension was gently vortexed and incubated for 15 min at room temperature in the dark. Following this, 400 µL of 1× binding buffer was added and samples were analysed using a FACScalibur flow cytometer.

[3] = target: T1, trypsin-like activity of human 20S proteasome (Homo sapiens, UniProt Q99436); test: Proteasome activity measurement, trypsin-like; assay type: biochemical; conditions: for Ki: purified human 20S proteasome, Bz-Val-Gly-Arg-AMC, non-competitive
T1 construct: purchased Boston Biochem, Inc
Procedure: (§1) Suc-Leu-Leu-Val-Tyr-AMC, Bz-Val-Gly-Arg-AMC and Z-Leu-Leu-Glu-AMC (Bachem, Bubendorf, Switzerland) were used for the chymotrypsin-like, trypsin-like and caspase-like activites, respectively. Assay buffer consisted of TE buffer (20 mM Tris (pH = 8.0), 0.5 mM EDTA, 0.03% SDS). Substrate hydrolysis was continuously monitored at 37°C with an automated microplate reader (Tecan Safire^2). Measured fluorescence values (RFU) were plotted versus time with nonlinear regression to fit a Michaelis-Menten plot.
(§2) For the Ki determination, 25 µL of substrate at three concentrations and 25 µL of inhibitor of interest also at three different concentrations were added to the wells of a white microplate. The reaction was initiated with 50 µL of the enzyme in the assay buffer. Flourescence of the AMC release was continuously monitored at 420 nm with 320 nm excitation.
(§3) Km and Ki were calculated using SigmaPlot 11 (Enzyme Kinetics Module 1.3) and are presented as the mean of three independent experiments.

[4] = target: T2, chymotrypsin-like activity of human 20S proteasome (Homo sapiens, UniProt P28074); test: Proteasome activity measurement, chymotrypsin-like; assay type: biochemical; conditions: purified human 20S proteasome, Suc-Leu-Leu-Val-Tyr-AMC, uncompetitive
T2 construct: purchased Boston Biochem, Inc
Procedure: as §1, §2, §3

[5] = tested on: p105 and IκBα in Ramos cells; test: Western blot analysis of phospho-p105, p105, phospho-IκB and IκB; assay type: cell-based, human; conditions: total level of both molecules remained the same
Procedure: (§4) Ramos cells were seeded in 6-well culture plates at a concentration of 1×10^6 cells/mL and treated with the compound of interest or corresponding vehicle for 1 h, 2 h or 6 h. After the indicated time points, cells were harvested, washed in ice-cold PBS and lysed in modified RIPA buffer (50 mM Tris-HCl, pH 7.4, 150 mM NaCl, 1% NP−40, 0.25% Na-deoxycholate, 1 mM EDTA, 1 µg/mL aprotinin, 1 mM PMSF and 1× Halt Phosphatase inhibitor cocktail (Thermo Scientific, Pierce Biotechnology, IL, USA)). The lysates were sonicated, rocked on ice for 30 min and centrifuged at 13,000 rpm at 4°C for 15 min. Protein samples were electrophoresed in SDS-polyacrylamide gels and then transferred to nitrocellulose membranes. The primary antibodies used were against ubiquitin, phospho-IκBα, IκBα, p65 and caspase-3 (Cell Signaling, Danvers/MA, USA), and p105/p50 (Santa Cruz Biotechnology, Inc., Santa Cruz/CA, USA), and ß-actin (Sigma-Aldrich). Following incubation with the primary antibody, membranes were washed six times and incubated for 1 h at room temperature with the corresponding dilution of the appropriate secondary antibody conjugated with horseradish peroxidase (Upstate, Temecula, CA, USA). The immunoreactivity of respective proteins of interest was determined by chemiluminescence using the SuperSignal West Femto substrate (Pierce, IL, USA), in accordance with the manufacturer's instructions. […]

[6] = target: Thrombin; design: method as in PMID 15497744, PMID 15544050, PMID 17484277; conditions: amidolytic assay, chromogenic substrate; determined previously; cited from earlier work
[7] = tested on: p65 and p50 translocation in Ramos cells; test: Subcellular fractionation and Western blot of p65 and p50; assay type: cell-based, human; conditions: 50 µM
Procedure: as §4

[8] = tested on: ubiquitinated proteins in Ramos cells; test: Western blot analysis of ubiquitinated proteins; assay type: cell-based, human; conditions: 6 h treatment
Procedure: as §4

[9] = presence of zVADfmk 50 µM (Figure 5D)

Row | SMILES | cell cycle distribution [1] | percentage of cells in the sub-G1 phase (< 2n) [1] [%] | number of hypodiploid cells [1] [%] | percentage of Annexin V positive cells [2] [%] | Ki [3] [µM] | Ki ' chymotrypsin-like activity [4] | levels of p105 and IκBα (phosphorylated forms) [5] | Ki [6] [µM] | translocation of p65 and p50 from the cytoplasm into the nucleus [7] | Annexin V positive cells (lower right quadrant) ([2]; absence of zVADfmk (Figure 5D)) [%] | living cells (lower left quadrant, Annexin V/7-AAD) ([2]; absence of zVADfmk (Figure 5D)) [%] | Annexin V positive cells (lower right quadrant) [2, 9] [%] | living cells (lower left quadrant, Annexin V/7-AAD) [2, 9] [%] | mode of inhibition, trypsin-like activity ([3]; SigmaPlot 11) | polyubiquitinated proteins [8]
1 | N=C(N)N1CCC(CN(NS(=O)(=O)c2ccc3ccccc3c2)C(=O)N2CCCCC2)CC1 [Compound 15] | accumulation of cells in the S phase | 8.7 | 42.5 | 57 | 13 | Ki ' = 84±15 µM | accumulation of the phosphorylated forms of p105 and IκBα | 0.47 | no translocation of p65 and p50 |  |  |  |  |  | 
2 | N=C(N)N1CCC(CN(NS(=O)(=O)c2ccc3ccccc3c2)C(=O)N2CCCCCC2)CC1 [Compound 16] | accumulation of cells in the S phase | 22.7 | 51.1 | 39 | 17 | Ki ' = 37±13 µM |  | 0.5 |  | 30 | 62 | 11 | 82 | non-competitive | increased amount of polyubiquitinated proteins
